Data taken from patent publication US10538491B2, “4,5-substituted picolinamide and picolinonitrile metabotropic glutamate receptor 2 negative allosteric modulators” (Vanderbilt University, priority 2015, dated 2020).

Target: rat mGlu2 (Rattus norvegicus (Rat), UniProt P31421)
Assay: mGlu2 Ca2+ flux assay
Format: cell-based
Conditions: for IC50: Gα15 HEK293 cells stably expressing rat mGlu2, glutamate EC80, >10,000 = no plateau, >30,000 = no measurable activity; for remaining activity at 30 µM / rat mGlu2 Glu max: amplitude of response in the presence of 30 μM test compound as percentage of maximal response to glutamate; for remaining activity at 30 µM: read-out: rat mGlu2 Glu max
Description: Gα15 HEK293 cells stably expressing rat mGlu2 were plated in black-walled, clear-bottomed, poly-D-lysine coated 384-well plates in 20 μL of assay medium (DMEM containing 10% dialyzed FBS, 20 mM HEPES, and 1 mM sodium pyruvate) at a density of 12K cells/well. The cells were grown overnight at 37° C. in the presence of 5% CO2. The next day, medium was removed and the cells incubated with 20 μL of 2.3 μM Fluo-4, AM prepared as a 2.3 mM stock in DMSO and mixed in a 1:1 ratio with 10% (w/v) pluronic acid F-127 and diluted in assay buffer (Hank's balanced salt solution, 20 mM HEPES, and 2.5 mM probenecid) for 45 minutes at 37° C. Dye was removed, 20 μL of assay buffer was added, and the plate was incubated for 5 minutes at room temperature.
Ca^2+ flux was measured using the Functional Drug Screening System (FDSS7000, Hamamatsu, Japan). After establishment of a fluorescence baseline for about 3 seconds, the compounds of the present invention were added to the cells, and the response in cells was measured. 2.3 minutes later an EC20 concentration of the mGlu2 receptor agonist glutamate was added to the cells, and the response of the cells was measured for 1.9 minutes; an EC80 concentration of agonist was added and readings taken for an additional 1.7 minutes. All test compounds were dissolved and diluted to a concentration of 10 mM in 100% DMSO. Compounds were then serially diluted 1:3 in DMSO into 10 point concentration response curves, transferred to daughter plates, and further diluted into assay buffer to a 2× stock. Calcium fluorescence measures were recorded as fold over basal fluorescence; raw data was then normalized to the maximal response to glutamate. Antagonism of the agonist response of the mGlu2 receptor in the present invention was observed as a decrease in response to nearly maximal concentrations of glutamate in the presence of compound compared to the response to glutamate in the absence of compound.
The raw data file containing all time points was used as the data source in the analysis template. This was saved by the FDSS as a tab-delimited text file. Data were normalized using a static ratio function (F/F0) for each measurement of the total 360 values per well divided by each well's initial value. Data were then reduced to peak amplitudes (Max−Initial Min) using a time range that starts approximately 3 seconds prior to the glutamate EC80 addition and continues for approximately 90 seconds. This is sufficient time to capture the peak amplitude of the cellular calcium response. Individual amplitudes were expressed as % ECMax by multiplying each amplitude by 100 and then dividing the product by the mean of the amplitudes derived from the glutamate ECMax-treated wells. IC50 values for test compounds were generated by fitting the normalized values versus the log of the test compound concentration (in mol/L) using a 4 parameter logistic equation where none of the parameters were fixed. Each of the three values collected at each concentration of test compound were weighted evenly.
For NAMs, potency (IC50) and maximum response (% Glu Max), i.e. the amplitude of response in the presence of 30 μM test compound as a percentage of the maximal response to glutamate, are reported. […] Compounds with no measurable activity are designated as “>30,000 nM” since the top concentration of compound tested in the assay is 30 μM.

Sequence of rat mGlu2 (P31421 19-872): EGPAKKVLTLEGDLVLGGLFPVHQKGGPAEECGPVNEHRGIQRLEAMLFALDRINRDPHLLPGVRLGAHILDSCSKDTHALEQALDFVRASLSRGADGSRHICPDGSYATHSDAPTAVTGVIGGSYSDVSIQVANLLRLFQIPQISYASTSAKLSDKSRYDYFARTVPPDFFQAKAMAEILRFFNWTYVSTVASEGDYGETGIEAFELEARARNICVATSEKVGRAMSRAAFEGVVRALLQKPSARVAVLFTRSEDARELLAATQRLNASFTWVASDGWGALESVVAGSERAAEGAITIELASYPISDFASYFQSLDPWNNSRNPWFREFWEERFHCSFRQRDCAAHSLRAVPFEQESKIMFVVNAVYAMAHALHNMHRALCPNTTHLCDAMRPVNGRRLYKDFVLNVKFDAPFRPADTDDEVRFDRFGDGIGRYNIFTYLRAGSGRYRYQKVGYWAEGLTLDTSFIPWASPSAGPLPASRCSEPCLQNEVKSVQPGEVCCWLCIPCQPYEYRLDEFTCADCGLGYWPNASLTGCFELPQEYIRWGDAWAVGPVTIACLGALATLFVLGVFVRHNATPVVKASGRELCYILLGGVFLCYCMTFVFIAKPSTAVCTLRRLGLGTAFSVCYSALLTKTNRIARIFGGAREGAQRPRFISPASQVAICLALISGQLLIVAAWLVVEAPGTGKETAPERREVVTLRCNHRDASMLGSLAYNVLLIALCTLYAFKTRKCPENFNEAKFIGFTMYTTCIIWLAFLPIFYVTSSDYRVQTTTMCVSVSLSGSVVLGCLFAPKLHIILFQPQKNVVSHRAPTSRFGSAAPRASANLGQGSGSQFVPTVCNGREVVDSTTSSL

| Compound | IC50 [µM] | remaining activity at 30 µM [%] | rat mGlu2 Glu max [%] |
| --- | --- | --- | --- |
| N#Cc1cccc(OCCOc2cnc(C(N)=O)cc2-c2ccc(F)cc2)c1F [Compound 155, 5-(2-(3-cyano-2-fluorophenoxy)ethoxy)-4-(4-fluorophenyl)picolinamide] | 0.528 | 1.07 |  |
| N#Cc1cc(-c2ccc(F)cc2)c(NCC2CCOCC2)cn1 [Compound 1, 4-(4-fluorophenyl)-5-(((tetrahydro-2H-pyran-4-yl)methyl)amino)picolinonitrile] | 6.85 | 5.12 |  |
| NC(=O)c1cc(-c2ccc(F)cc2)c(NCCN2CCOCC2)cn1 [Compound 133, 4-(4-fluorophenyl)-5-((2-morpholinoethyl)amino)picolinamide] | 6.54 | -4.31 |  |
| NC(=O)c1cc(-c2ccc(F)cc2)c(OCCOc2cc(F)cc(Br)c2)cn1 [Compound 102, 5-(2-(3-bromo-5-fluorophenoxy)ethoxy)-4-(4-fluorophenyl)picolinamide] | 5.24 | 3.34 |  |
| NC(=O)c1cc(-c2ccc(F)cc2)c(OCCOc2ccccc2Br)cn1 [Compound 105, 5-(2-(2-bromophenoxy)ethoxy)-4-(4-fluorophenyl)picolinamide] | > 30 |  |  |
| CC1CN(CCCOc2cnc(C#N)cc2-c2ccc(F)cc2)CCO1 (stereo not drawn) [Compound 72, 4-(4-fluorophenyl)-5-(3-(2-methylmorpholino)propoxy)picolinonitrile] | > 30 |  |  |
| NC(=O)c1cc(-c2ccc(F)cc2)c(OCc2cccnc2)cn1 [Compound 38, 4-(4-fluorophenyl)-5-(pyridin-3-ylmethoxy)picolinamide] | 0.507 ± 0.123 | 5.84 ± 1.16 |  |
| N#Cc1cccc(COc2cnc(C(N)=O)cc2-c2ccc(F)cc2)c1 [Compound 145, 5-((3-Cyanobenzyl)oxy)-4-(4-fluorophenyl)picolinamide] | 0.429 | 1.5 |  |
| NC(=O)c1cc(-c2ccc(F)cc2)c(N2CC(Oc3ccc(C(F)(F)F)nc3)C2)cn1 [Compound 141, 4-(4-fluorophenyl)-5-(3-((6-(trifluoromethyl)pyridin-3-yl)oxy)azetidin-1-yl)picolinamide] | > 10 | 53.9 |  |
| C[C@@H]1CN(CCOc2cnc(C#N)cc2-c2ccc(F)cc2)C[C@H](C)O1 [Compound 70, 5-(2-((cis)-2,6-Dimethylmorpholino)ethoxy)-4-(4-fluorophenyl)picolinonitrile] | > 30 |  |  |
| Cc1ccc(OCCOc2cnc(C(N)=O)cc2-c2ccc(F)cc2)cn1 [Compound 114] | 0.738 |  | 1.80 |
| NC(=O)c1cc(-c2ccc(F)cc2)c(OCCOc2cc(F)cc(F)c2)cn1 [Compound 110, 5-(2-(3,5-difluorophenoxy)ethoxy)-4-(4-fluorophenyl)picolinamide] | 1.72 | 38.7 |  |
| Cc1ncc(OCCCOc2cnc(C#N)cc2-c2ccc(F)cc2)cn1 [Compound 64, 4-(4-fluorophenyl)-5-(3-((2-methylpyrimidin-5-yl)oxy)propoxy)picolinonitrile] | > 30 |  |  |
| N#Cc1cc(-c2ccc(F)cc2)c(OC2CN(c3ccnc(C(F)(F)F)c3)C2)cn1 [Compound 28, 4-(4-fluorophenyl)-5-((1-(2-(trifluoromethyl)pyridin-4-yl)azetidin-3-yl)oxy)picolinonitrile] | > 30 |  |  |
| NC(=O)c1cc(-c2ccc(F)cc2)c(OCc2cccnn2)cn1 [Compound 49, 4-(4-fluorophenyl)-5-(pyridazin-3-ylmethoxy)picolinamide] | 1.47 | -0.08 |  |
| Cn1cc(-c2cc(C(N)=O)ncc2OCc2cccnc2)cn1 [Compound 82, 4-(1-methyl-1H-pyrazol-4-yl)-5-(pyridin-3-ylmethoxy)picolinamide] | > 30 |  |  |

| Compound | IC50 [µM] | remaining activity at 30 µM [%] | rat mGlu2 Glu max [%] |
| --- | --- | --- | --- |
| N#Cc1cc(-c2ccc(F)cc2)c(OCCN2CCOCC2)cn1 [Compound 24, 4-(4-fluorophenyl)-5-(2-morpholinoethoxy)picolinonitrile] | > 30 |  |  |
| NC(=O)c1cc(-c2ccc(F)cc2)c(OCCOc2cc(Br)ccc2F)cn1 [Compound 101, 5-(2-(5-bromo-2-fluorophenoxy)ethoxy)-4-(4-fluorophenyl)picolinamide] | 4.26 | 1.85 |  |
| N#Cc1cc(-c2ccc(F)cc2)c(OCCCOc2ccnc(C(F)(F)F)c2)cn1 [Compound 67, 4-(4-fluorophenyl)-5-(3-((2-(trifluoromethyl)pyridin-4-yl)oxy)propoxy)picolinonitrile] | > 30 |  |  |
| Cn1cc(-c2cc(C(N)=O)ncc2OCc2ccc(C(F)(F)F)nc2)cn1 [Compound 87, 4-(1-methyl-1H-pyrazol-4-y1)-5-((6-(trifluoromethyl)pyridin-3-yl)methoxy)picolinamide] | > 10 |  | 29.69 |
| Cc1ccc(COc2cnc(C(N)=O)cc2-c2cnn(C)c2)cn1 [Compound 85, 4-(1-methyl-1H-pyrazol-4-yl)-5-((6-methylpyridin-3-yl)methoxy)picolinamide] | > 10 | 46.7 |  |
| NC(=O)c1cc(-c2ccc(F)cc2)c(N2CCC(Oc3ccnc(C(F)(F)F)c3)C2)cn1 (stereo not drawn) [Compound 144, 4-(4-fluorophenyl)-5-(3-((2-(trifluoromethyl)pyridin-4-yl)oxy)pyrrolidin-1-yl)picolinamide] | 7.45 | 1.28 |  |
| COc1ccc(COc2cnc(C#N)cc2-c2ccc(F)cc2)cn1 [Compound 15, 4-(4-fluorophenyl)-5-((6-methoxypyridin-3-yl)methoxy)picolinonitrile] | > 30 |  |  |
| NC(=O)c1cc(-c2ccc(F)cc2)c(OCCOc2cccc(Br)c2F)cn1 [Compound 104, 5-(2-(3-bromo-2-fluorophenoxy)ethoxy)-4-(4-fluorophenyl)picolinamide] | > 30 |  |  |
| Cc1ccc(OC2CCN(c3cnc(C(N)=O)cc3-c3ccc(F)cc3)CC2)cn1 [Compound 139, 4-(4-fluorophenyl)-5-(4-((6-methylpyridin-3-yl)oxy)piperidin-l-yl)picolinamide] | 9.59 |  | 7.04 |
| CC(Oc1cnc(C#N)cc1-c1ccc(F)cc1)c1ccncc1 (stereo not drawn) [Compound 19, 4-(4-fluorophenyl)-5-(1-(pyridin-4-yl)ethoxy)picolinonitrile] | > 10 | 27.1 |  |
| Cc1ccc(OC2CN(c3cnc(C(N)=O)cc3-c3ccc(F)cc3)C2)cn1 [Compound 142, 4-(4-fluorophenyl)-5-(3-((6-methylpyridin-3-yl)oxy)azetidin-1-yl)picolinamide] | 1.28 | 2.35 |  |
| CC(COc1ccnc(C(F)(F)F)c1)Oc1cnc(C(N)=O)cc1-c1ccc(F)cc1 (stereo not drawn) [Compound 120, 4-(4-fluorophenyl)-5-((1-((2-(trifluoromethyl)pyridin-4-yl)oxy)propan-2-yl)oxy)picolinamide] | 0.483 | 1.72 |  |
| NC(=O)c1cc(-c2ccc(F)cc2)c(N2CC(Oc3cccnc3)C2)cn1 [Compound 143, 4-(4-fluorophenyl)-5-(3-(pyridin-3-yloxy)azetidin-1-yl)picolinamide] | 2.03 | 7.01 |  |
| NC(=O)c1cc(-c2ccc(F)cc2)c(N2CCC(Oc3ccc(C(F)(F)F)nc3)CC2)cn1 [Compound 77, 4-(4-Fluorophenyl)-5-(4-((6-(trifluoromethyl)pyridin-3-yl)oxy)piperidin-1-yl)picolinamide] | > 30 | 35.1 |  |
| Cc1ncc(OCCCOc2cnc(C(N)=O)cc2-c2ccc(F)cc2)cn1 [Compound 125, 4-(4-fluorophenyl)-5-(3-((2-methylpyrimidin-5-yl)oxy)propoxy)picolinamide] | > 10 | 35.1 |  |
| Cc1ncc(OCCOc2cnc(C#N)cc2-c2ccc(F)cc2)cn1 [Compound 75, 4-(4-Fluorophenyl)-5-(2-((2-methylpyrimidin-5-yl)oxy)ethoxy)picolinonitrile] | > 10 | 30.2 |  |
